Results published in patent publication US4808616A, “6-substituted androsta-1,4-diene-3,17-diones” (Farmitalia Carlo Erba S.r.l., priority 1985, dated 1989).

Experiments:
rat ovarian aromatase = test: Inhibition of rat ovarian aromatase in vivo (PMSG-treated adult female rats, oral)
[1] = women; cited from earlier work
[2] = molecular target: T1, human placental aromatase (Homo sapiens, UniProt P11511); test: Inhibition of human placental aromatase in vitro; assay type: biochemical
T1 construct: isolated from the microsomal fraction of human placental tissue; from tissue; host or cells: human placenta, microsomal fraction
T1 sequence (P11511 1-503): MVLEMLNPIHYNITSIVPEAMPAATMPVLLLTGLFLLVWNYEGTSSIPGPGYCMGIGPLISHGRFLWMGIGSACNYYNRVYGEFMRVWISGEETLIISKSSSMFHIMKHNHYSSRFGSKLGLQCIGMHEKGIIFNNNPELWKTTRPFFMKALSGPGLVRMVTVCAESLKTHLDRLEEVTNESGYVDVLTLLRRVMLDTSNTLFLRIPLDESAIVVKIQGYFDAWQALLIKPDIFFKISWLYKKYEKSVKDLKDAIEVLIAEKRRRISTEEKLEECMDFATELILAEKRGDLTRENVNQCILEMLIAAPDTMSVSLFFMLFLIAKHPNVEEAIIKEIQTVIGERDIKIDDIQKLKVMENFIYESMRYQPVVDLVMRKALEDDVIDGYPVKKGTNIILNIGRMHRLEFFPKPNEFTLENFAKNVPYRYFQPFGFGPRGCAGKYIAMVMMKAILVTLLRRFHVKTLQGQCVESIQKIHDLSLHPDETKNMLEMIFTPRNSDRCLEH

[3] = 30 mg/kg p.o., rats, ovaries taken 24 hrs later

For C[C@]12CCC(=O)C(O)=C1CC[C@@H]1[C@@H]2CC[C@]2(C)C(=O)CC[C@@H]12 [4-hydroxy-androst-4-ene-3,17-dione], the “% Aromatase inhibition at 30 mg/kg p.o. (result in words)” value (rat ovarian aromatase; [3]) is given as “inactive”, the “effectiveness in vivo by oral route (in words)” value (rat ovarian aromatase; administered in vivo by oral route) is given as “ineffective” and the “conjugation after oral administration” value [1] is given as “extensively conjugated after oral administration”.
For C[C@]12C=CC(=O)C=C1CC[C@@H]1[C@@H]2CC[C@]2(C)OC(=O)CC[C@@H]12 [Δ^1 -testololactone, reference compound], the Relative potency [2] was 0.005 and the “% Aromatase inhibition at 30 mg/kg p.o. (result in words)” value (rat ovarian aromatase; [3]) was “inactive”.
With C=C1C[C@@H]2[C@H](CC[C@]3(C)C(=O)CC[C@@H]23)[C@@]2(C)CCC(=O)C=C12 [6-methylenandrost-4-ene-3,17-dione, reference compound] the “% Aromatase inhibition at 30 mg/kg p.o. (result in words)” value (rat ovarian aromatase; [3]) was “inactive”.
In the case of C[C@]12C=CC(=O)C=C1CC[C@@H]1[C@@H]2CC[C@]2(C)C(=O)CC[C@@H]12 [androsta-1,4-diene-3,17-dione], the “% Aromatase inhibition at 30 mg/kg p.o.” value (rat ovarian aromatase; [3]) is reported as 37%.
